Results from publication PMC10439952, “JT002, a small molecule inhibitor of the NLRP3 inflammasome for the treatment of autoinflammatory disorders” (Scientific Reports, 2023).
Read-outs that look alike come from different tables or passages of the source.

Assays:
[1] = target: NLRP3 inflammasome (Mus musculus, UniProt Q8R4B8); experiment: Inhibition of IL-1β production in LPS + ATP stimulated mouse whole blood; type: cell-based
Procedure: Inflammasome activation and whole blood assays were essentially carried out as described earlier. Details can be found in the supplementary information section accompanying this publication. A protocol for blood draws from healthy volunteers and use of the blood in preclinical assays was approved by Western Institutional Review Board, Inc (Puyallup, WA, USA). Informed consent was obtained from each donor prior to the first blood draw.
Cell viability was determined by addition of an equal volume of CellTiter-Glo® 2.0 reagent (Promega) to the remaining cells/supernatant in each well. Intracellular Caspase-1 activity was measured using the Caspase-Glo® assay (Promega) according to the manufacturer’s instructions. The biochemical capsase-1 assay was conducted at Reaction Biology Corporation (Malvern, USA). Human IL-1β, IL-1α, and TNFα and mouse IL-1β were measured in cell culture supernatants using homogeneous time resolved fluorescence assay kits (HTRF, Cisbio, Codolet, France). Human IL-18 was measured in cell culture supernatants using an ELISA kit (R&D Systems, Minneapolis, MN, USA). Plasma IL-1β concentrations were determined by Quantikine® ELISA (R&D Systems, Minneapolis, MN). […]
flagellin, prepared in Opt iMEM and combined with Lipofectamine 2000. […]

[2] = Pharmacokinetics in male Beagle dogs after i.v. and p.o. administration; type: in vivo; conditions: plasma, Dog
Procedure: The pharmacokinetics (PK) of JT002 were assessed in male Sprague–Dawley rats and male Beagle dogs after intravenous (i.v.) and oral (p.o.) administration (Table 2). […] In dogs, a maximum drug plasma concentration (Cmax) of 4.0 µg/mL (9 µM) was reached 1 h after a single 1 mg oral dose. Dose-adjusted exposures (dose-adjusted AUC) from oral administration were close to identical between rat and dog (11.8 versus 11.6) (Table 2).

[3] = system: ozone exposed C57BL6/J mice; experiment: Murine model of ozone induced neutrophilic airway inflammation; type: in vivo, mouse
Procedure: Four groups of 4 or 5 female C57BL6/J mice (The Jackson Laboratory, Bar Harbor, ME) at 8–12 weeks of age were housed under pathogen-free conditions and maintained on an ovalbumin-free diet. Mice were dosed orally with JT002 at 2.5 or 25 mg/kg once daily for 4 days. On the last day, 1-h post-dosing of test compound, mice were exposed to O3 at 1.0 ppm for 3 h in stainless steel wire cages set inside 240-L laminar flow inhalation chambers. O3 was generated by directing compressed medical-grade oxygen through an electrical discharge O3 generator (Sander Ozonizer, Model 25, Erwin Sander Elektroapparatebau GmbH, Uetze-Eltze, Germany) located upstream of the exposure chamber. Exposure to HEPA-filtered air was done in a separate chamber with age- and treatment-matched control animals.
Determination of airway hyperresponsiveness (AHR) AHR was assessed on Day 30 (iTreg model) or 3 h after the O3 exposure (ozone model) as a change in airway resistance (cm H2O/mL/s) after challenge with aerosolized methacholine with using a whole body plethysmograph-based system (National Jewish Medical and Research Center, Denver, CO). Methacholine aerosol was administered by nebulization in increasing concentrations (12.5–100 mg/mL) and RL was continuously computed by fitting flow, volume, and pressure to an equation of motion (Labview, National Instruments, Dallas, TX). Bronchoalveolar Lavage Immediately after assessment of AHR, lungs were lavaged via the tracheal tube with 1 mL of Hanks’ balanced salt solution (Gibco, Grand Island, NY). Total cell numbers were counted. Differential cell counts for neutrophils and macrophages were performed in a blinded fashion by counting at least 200 cells on cytocentrifuged preparations (Model Cytospin 3, Shandon Ltd, Runcorn, UK) stained with Leukostat (Fisher Diagnostics, Fair Lawn, NJ). Cell-free BAL fluid was stored at − 80 °C until measurements of cytokine levels by ELISA (eBioscience, San Diego, CA) were performed. Blood Collection Immediately following AHR measurement, mice were euthanized by exsanguination and blood collected for serum. Samples were stored at − 80 °C for subsequent measurement of immunoglobulin levels by ELISA. Lung Histology After BAL collection, lungs were inflated through the trachea with 1 mL of 10% formalin, removed and fixed in 10% formalin by immersion. Blocks of the lung tissue were cut around the main bronchus and embedded in paraffin blocks. Tissue sections (5 μm) were affixed to glass slides, and the slides were deparaffinized and stained with H&E for qualitative analysis of inflammatory cell influx and epithelial desquamation.

[4] = 2.5 mg/kg orally once daily for 4 days
[5] = 25 mg/kg orally once daily for 4 days

Sequence of NLRP3 inflammasome (Q8R4B8 whole entry): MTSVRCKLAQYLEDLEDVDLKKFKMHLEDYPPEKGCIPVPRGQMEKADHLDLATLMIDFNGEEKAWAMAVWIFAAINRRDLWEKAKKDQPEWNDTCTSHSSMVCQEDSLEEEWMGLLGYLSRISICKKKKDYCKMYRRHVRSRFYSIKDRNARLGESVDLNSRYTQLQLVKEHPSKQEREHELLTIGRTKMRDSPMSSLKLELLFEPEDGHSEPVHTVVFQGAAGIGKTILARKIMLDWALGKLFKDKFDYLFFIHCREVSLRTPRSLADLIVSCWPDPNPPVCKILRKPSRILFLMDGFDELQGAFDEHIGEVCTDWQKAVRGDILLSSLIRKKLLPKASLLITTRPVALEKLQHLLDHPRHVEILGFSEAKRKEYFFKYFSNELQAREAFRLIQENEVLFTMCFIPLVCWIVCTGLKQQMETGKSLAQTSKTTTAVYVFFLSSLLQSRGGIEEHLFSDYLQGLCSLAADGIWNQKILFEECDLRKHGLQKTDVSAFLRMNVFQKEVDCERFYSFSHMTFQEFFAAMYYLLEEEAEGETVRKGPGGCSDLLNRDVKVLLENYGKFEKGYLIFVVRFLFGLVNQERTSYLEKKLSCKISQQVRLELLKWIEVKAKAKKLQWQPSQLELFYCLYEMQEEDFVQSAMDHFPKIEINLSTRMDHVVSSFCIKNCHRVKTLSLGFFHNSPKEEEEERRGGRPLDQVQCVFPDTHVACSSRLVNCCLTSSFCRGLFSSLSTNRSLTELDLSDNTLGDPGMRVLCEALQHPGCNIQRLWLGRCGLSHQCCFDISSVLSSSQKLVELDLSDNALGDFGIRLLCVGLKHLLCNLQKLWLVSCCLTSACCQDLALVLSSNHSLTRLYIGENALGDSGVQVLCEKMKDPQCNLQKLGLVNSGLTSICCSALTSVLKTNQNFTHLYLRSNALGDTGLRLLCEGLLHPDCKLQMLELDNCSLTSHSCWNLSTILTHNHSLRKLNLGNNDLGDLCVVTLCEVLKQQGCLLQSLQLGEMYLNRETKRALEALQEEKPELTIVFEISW

CO[C@@H]1COc2c(S(=O)(=O)NC(=O)Nc3c4c(cc5c3CCC5)CCC4)cnn2C1 [JT002]
IC90 ([1]; IL-1β, read-out: in vitro mouse whole blood IC90): 716 nM | IC50 ([1]; read-out: Geo Av IC50, IL-1β): 94 nM | Cmax ([2]; single 1 mg oral dose, read-out: maximum drug plasma concentration (Cmax)): 9 µM | AUC ([2]; iv, 1 mg/kg): 10600 ng·h/mL | half-life ([2]; iv, 1 mg/kg): 1.1 h | clearance ([2]; iv, i.v., 1 mg/kg, read-out: Clpl (plasma clearance)): 1.8 mL/min/kg | Cmax ([2]; iv, i.v., 1 mg/kg, read-out: Cmax): 7000 ng/mL | Vd ([2]; iv, i.v., 1 mg/kg, read-out: Vss): 0.2 L/kg | AUC ([2]; po, 1 mg/kg): 11600 ng·h/mL | half-life ([2]; po, 1 mg/kg): 1.4 h | Tmax ([2]; po, 1 mg/kg, median): 1 h | Cmax ([2]; po, p.o., 1 mg/kg, read-out: Cmax): 4000 ng/mL | bioavailability ([2]; po, p.o., 1 mg/kg, sodium salt form, read-out: %F (oral bioavailability)): 100% | AHR [3, 4]: strong trend for reduction | BAL neutrophilia [3, 4]: no effect | prevention of airway epithelial desquamation [3, 4]: strong trend | BAL fluid neutrophil numbers [3, 5]: significantly reduced | appearance of epithelial cells in the airway lumen [3, 5]: visibly reduced | number of epithelial cells in the BAL fluid [3, 5]: no effect | ozone-induced AHR [3, 5]: prevented ozone-induced AHR
